According to patent US20060216253A1, “Whitening cosmetics containing morus alba extracts” (Time and Cross, Inc., priority 2005, published 2006):

Columns and labels:
[1] = biological target: T1, Murine Tyrosinase (Mus musculus, UniProt P11344); experiment: Inhibitory effects on murine tyrosinase prepared from melanoma B-16 cells; assay type: biochemical; details: tyrosinase from melanoma B-16 cells
T1 construct: supernatant was dialyzed against 50 mM sodium phosphate buffer (pH 6.8) and then used as a source of murine tyrosinase; endogenous in cells; host or cells: murine melanoma B-16 cells (Triton X-100 extract, dialysed supernatant)
T1 sequence (P11344 19-533): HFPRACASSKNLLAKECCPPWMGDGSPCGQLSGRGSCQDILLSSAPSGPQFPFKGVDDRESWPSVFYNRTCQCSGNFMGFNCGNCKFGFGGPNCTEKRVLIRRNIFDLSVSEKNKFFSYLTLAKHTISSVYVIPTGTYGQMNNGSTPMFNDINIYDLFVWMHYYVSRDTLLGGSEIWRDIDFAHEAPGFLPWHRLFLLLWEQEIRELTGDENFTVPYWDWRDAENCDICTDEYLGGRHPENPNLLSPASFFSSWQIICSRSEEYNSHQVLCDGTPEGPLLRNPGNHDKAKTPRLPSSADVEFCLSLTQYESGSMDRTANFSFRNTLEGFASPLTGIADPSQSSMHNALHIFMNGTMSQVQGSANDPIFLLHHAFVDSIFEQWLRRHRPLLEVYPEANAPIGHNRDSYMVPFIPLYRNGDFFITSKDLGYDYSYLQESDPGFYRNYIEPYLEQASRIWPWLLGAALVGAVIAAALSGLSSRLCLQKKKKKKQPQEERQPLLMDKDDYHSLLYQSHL
Procedure: Murine tyrosinase was prepared from the melanoma B-16 cell line. Murine melanoma B-16 cells were grown in DMEM (13.4 mg/mL of Dulbecco's modified Eagle's medium, 24 mM NaHCO3, 10 mM HEPES, 143 units/mL of penicillin G potassium, 160 μg/mL of streptomycin sulfate, pH 7.1) containing 10% fetal bovine serum (FBS) with 5% CO2 at 37° C. When the cells were confluent, melanoma cells were removed from culture dishes and washed once with PBS buffer. The cell suspension was centrifuged at 250×g for 10 min at 4° C. The cell pellet was suspended in 0.5 mL of 50 mM sodium phosphate buffer (pH 6.8) containing 0.1 mM phenylmethylsulfonyl fluoride and 0.5% Triton X-100. The cell suspension was sonicated six times for 30 sec each with 1 min intervals and then incubated at 4° C. for 1 hr to solubilize the tyrosinase. After centrifugation at 50,000×g for 20 min at 4° C., supernatant was dialyzed against 50 mM sodium phosphate buffer (pH 6.8) and then used as a source of murine tyrosinase.
As in the mushroom tyrosinase experiment discussed above, the amount of dopachrome in the reaction mixture was determined spectrophotmetrically using absorbance measurement at 490 nm.

[2] = test system: murine melanoma B16 cells; experiment: Melanin production in murine melanoma B-16 cells; assay type: cell-based; details: for Melanin production (%): B16 cells, 3 days
Procedure: The melanoma cell line was grown in DMEM culture medium containing 4.5 g of glucose/l, 10% fetal bovine serum and 1% antibiotic agent and cultivated at 37° C. under a condition of 5% CO2. The cell suspension was inoculated in a 50 mL T-flask (3×10^5 cells/mL) and the cells were allowed to completely adhere to the plate for 24 hr. Then, test samples diluted in DMEM medium at concentrations of 1, 5, 10, 50, and 100 μg/mL were added to the cultivated cells, and the mixture was cultivated at 5% CO2 and 37° C. for 3 days. After cultivation, culture medium was thoroughly removed and the cells were isolated via trypsin treatment. The suspensions were then centrifuged for 5 min to collect cells. The obtained cells were treated with 5% trichloroacetic acid (TCA), stirred and centrifuged. The precipitated melanin was washed with phosphate buffered saline (PBS), and treated with 1 N NaOH to dissolve the melanin therein. Absorbance at 475 nm was measured. Melanin concentration was determined from a standard concentration curve of synthetic melanin (SIGMA Co., USA).

[3] = test system: melan-a cell line; experiment: Melanin production in melan-a cell line; assay type: cell-based; details: melan-a cells; for Melanin production (%): 72 hr
Procedure: Melan-a cells were grown in 10 mL of RPMI 1640 medium supplemented with antibiotics, 10% fetal bovine serum (FBS), and 20 nM TPA. The cell suspension was inoculated in a 24-well plate (10^5 cells/mL) and the cells were allowed to completely adhere to the plate for 24 hr. Test samples dissolved in DMSO were added to the plate and incubated at 37° C. for 72 hr in a CO2 incubator. The culture medium was then thoroughly removed and the cells were isolated through trypsin treatment. The suspensions were then centrifuged for 5 min to collect cells, which were then treated with 5% trichloroacetic acid (TCA), stirred and centrifuged to precipitate the melanin. Melanin was washed with PBS and dissolved in 1 N NaOH. Absorbance at 475 nm was measured. Melanin concentration was determined from a standard concentration curve of synthetic melanin (SIGMA Co., USA).

[4] = biological target: T2, Human Tyrosinase (Homo sapiens, UniProt P14679); experiment: Inhibitory effects on human tyrosinase prepared from HM3KO human melanoma cells; assay type: biochemical
T2 construct: endogenous in cells; host or cells: HM3KO human melanoma cells (Triton X-100 extract, dialysed supernatant)
T2 sequence (P14679 19-529): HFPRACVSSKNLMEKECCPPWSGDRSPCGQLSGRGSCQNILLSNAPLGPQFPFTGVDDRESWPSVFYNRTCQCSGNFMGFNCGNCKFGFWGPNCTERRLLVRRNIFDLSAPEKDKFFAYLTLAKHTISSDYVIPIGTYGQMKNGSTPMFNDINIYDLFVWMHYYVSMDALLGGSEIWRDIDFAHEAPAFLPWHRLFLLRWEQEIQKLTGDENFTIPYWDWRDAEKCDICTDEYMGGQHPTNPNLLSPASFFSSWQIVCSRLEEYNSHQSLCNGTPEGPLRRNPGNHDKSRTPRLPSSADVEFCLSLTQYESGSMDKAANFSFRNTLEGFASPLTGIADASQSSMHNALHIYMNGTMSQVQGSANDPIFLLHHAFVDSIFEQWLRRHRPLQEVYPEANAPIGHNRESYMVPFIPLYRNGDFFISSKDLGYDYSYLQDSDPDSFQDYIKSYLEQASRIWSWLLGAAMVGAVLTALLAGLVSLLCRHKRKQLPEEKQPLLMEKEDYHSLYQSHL
Procedure: Human tyrosinase was prepared from the HM3KO human melanoma cell line. HM3KO cells were cultured in modified Eagles medium supplemented with 10% fetal calf serum. Cultured cells were removed from culture dishes and washed once with PBS buffer and centrifuged. The cell pellet was sonicated in 100 mM sodium phosphate buffer (pH6.8) containing 0.1 mM phenylmethylsulfonyl fluoride (PMSF) and 1% Triton X-100, incubated in ice for 1 hr to solubilize the tyrosinase, and centrifuged. The supernatant was dialyzed against 50 mM sodium phosphate buffer (pH 6.8) and then used as the source of human tyrosinase for use in our inhibition assays.
As in the mushroom and murine tyrosinase experiments discussed above, the amount of dopachrome in the reaction mixture was determined spectrophotmetrically using absorbance measurement at 490 nm.

[5] = test system: tyrosinase mRNA; experiment: RT-PCR analysis of tyrosinase mRNA in murine melanoma B-16 cells; assay type: cell-based; details: FIG. 5
Procedure: To elucidate the mechanism by which Morus alba extract and mulberroside A exerts its effect, RT-PCR analysis was performed. mRNA from cultured murine melanoma B-16 cells were isolated using a Promega polytract system 1000 mRNA isolation kit. Approximately 80 to 100 μg of mRNA was isolated from 10^8 cells. We synthesized the 3′ primer 5′[…]3′ (nucleotides 197-216 from the ATG start codon) and the 5′ primer 5′[…]3′ (nucleotides 669-688 from the ATG start codon) for use in the RT-PCR analysis of tyrosinase mRNA.
This mixture was incubated for 1 minute at 94° C., then for 30 seconds at 55° C. and finally for 10 minutes at 72° C.
For PCR amplification of cDNA, 80 μL of a PCR mixture containing 8 μL of 10× chelating buffer, 1 mM MgCl2 and 50 pmole of 5′ primer was added to the reverse transcription reaction mixture. DNA amplification was performed on a Perkin Elmer Gene Amp PCR system 2400 thermal cycler. The PCR cycle conditions included melting for 30 sec at 94° C., annealing for 30 sec at 55° C., and extension for 1 min at 72° C. The PCR ran for 28 cycles, and the products (492 bp) were analyzed by 2% agarose gel electrophoresis. As an internal control, mouse β-actin mRNA was also amplified using the mouse β-actin amplimer set (Clontech, USA).

[6] = biological target: Mushroom Tyrosinase; experiment: Inhibitory effects on mushroom tyrosinase (dopachrome, OD490, 15 min); assay type: biochemical
Procedure: (§1) L-Tyrosine, the substrate for tyrosinase, was dissolved in 50 mM sodium phosphate buffer (pH6.8) to prepare a solution of 0.1 mg/mL L-tyrosine. […] 100 μL of the L-tyrosine solution was introduced into a test tube, and 100 μL of 50 mM sodium phosphate buffer (pH6.8) with or without test samples were added thereto, and then 10 μL of 200 U/mL tyrosinase were mixed and incubated at 37° C. for 15 min.
The amount of dopachrome in the reaction mixture was determined spectrophotmetrically using absorbance measurement at 490 nm.

[7] = test system: melanocytes; experiment: Microscopic observation of pigmentation of confluent melanocyte monolayer; assay type: cell-based; details: cell line not specified
Text: The pigmentation of a confluent monolayer of melanocytes is visible microscopically, as the cells contain black melanin pigment.

[8] = test system: Mushroom Tyrosinase; experiment: Extended duration of mushroom tyrosinase inhibition (up to 24 hours); assay type: biochemical
Procedure: as §1
Using the experimental conditions described in the Mushroom Tyrosinase experiment described above, the reaction mixtures, containing various concentrations from 1 μg/mL to 50 μg/mL of the agents assayed, were incubated at 37° C. and spectrophotometric measurements of dopachrome were made at time intervals of up to 24 hours.

OC[C@H]1O[C@@H](Oc2cc(O)cc(/C=C/c3ccc(O[C@@H]4O[C@H](CO)[C@@H](O)[C@H](O)[C@H]4O)cc3O)c2)[C@H](O)[C@@H](O)[C@@H]1O [Mulberroside A, mulberroside A]
IC50 [1]: 61.5 µM
Melanin production (%) ([2]; 1 μg/mL): 98.3 ± 1.0%
Melanin production (%) ([2]; 5 μg/mL): 92.4 ± 2.1%
Melanin production (%) ([2]; 10 μg/mL): 91.2 ± 7.3%
Melanin production (%) ([2]; 50 μg/mL): 59.8 ± 9.0%
Melanin production (%) ([2]; 100 μg/mL): 21.8 ± 5.4%
reduction in melanin production ([2]; melanoma B-16 cells, 100 μg/mL): 78.2%
Melanin production (%) ([3]; 1 μg/mL): 98.5 ± 7.2%
Melanin production (%) ([3]; 5 μg/mL): 93.6 ± 4.8%
Melanin production (%) ([3]; 10 μg/mL): 92.8 ± 6.5%
Melanin production (%) ([3]; 50 μg/mL): 61.2 ± 8.0%
reduction in melanin production ([3]; 100 μg/mL): 76.3%
Melanin production (%) ([3]; 100 μg/mL): 23.7 ± 3.8%
IC50 [4]: 76.8 µM
amount of tyrosinase mRNA [5]: decreased the amount of tyrosinase mRNA in a dose-dependent manner
IC50 ([6]; 37° C., 15 min, L-tyrosine substrate): 9.5 µM
inhibitory effect on mushroom tyrosinase (in words) ([6]; FIGS. 1 and 2): the most potent inhibitors of mushroom tyrosinase
pigmentation of treated cells observed microscopically [7]: Reduced pigmentation
fold stronger inhibitory effect on tyrosinase activity than kojic acid ([8]; from IC50 values after 24 hours incubation): 12 fold
IC50 ([8]; read-out: IC50 for tyrosinase inhibition after 24 hours incubation, 24 hours incubation): 20 µM
